Consider 49 compounds from patent US7678810B2, “Thiazole derivative” (Taisho Pharmaceutical Co., Ltd, priority 2004, dated 2010).

pIC50: −log10 of the molar value.

As a reminder, the melting point is the temperature, or range, at which the solid turns liquid. The pIC50 is the IC50 on a negative log10 scale, so that one unit is a factor of ten. The low end stands for a large IC50, the high end for a small IC50.

Tested on in the first series: not given
Assay: not given
Conditions: not given
The compound `COCC(=O)NCc1nc(-c2nc(C)cs2)c(-c2ccc3ncsc3c2)[nH]1` [Compound 124] displayed a melting point of 223.5 to 224 °C. Still for that read-out and setting: under `Cc1csc(-c2nc(CNC(=O)C3CCOCC3)[nH]c2-c2ccc3ncsc3c2)n1` [Compound 129] stands 197 to 197.5 °C. Same read-out and setting: under `CCCNC(=O)NCc1nc(-c2nc(C)cs2)c(-c2ccc3ncsc3c2)[nH]1` [Compound 177] stands 179.5 to 182 °C; under `Cc1csc(-c2nc(CNC(=O)NC(C)C)[nH]c2-c2ccc3ncsc3c2)n1` [Compound 178], 178.5 to 180 °C. In turn, `CCCCNC(=O)NCc1nc(-c2nc(C)cs2)c(-c2ccc3ncsc3c2)[nH]1` [Compound 179] showed a melting point of 190.5 to 191.5 °C. Compound `CCN(CC)C(=O)NCc1nc(-c2nc(C)cs2)c(-c2ccc3ncsc3c2)[nH]1` [Compound 181] returned a melting point of 222.5 to 223 °C. The same measure, in the same setting: under `CCCCCNC(=O)NCc1nc(-c2nc(C)cs2)c(-c2ccc3ncsc3c2)[nH]1` [Compound 182] stands 199 to 201 °C. With `Cc1csc(-c2nc(CNC(=O)NC3CCCC3)[nH]c2-c2ccc3ncsc3c2)n1` [Compound 183], the melting point was 185.5 to 188 °C. On the same count and under the same terms, to `Cc1csc(-c2nc(CNC(=O)N3CCOCC3)[nH]c2-c2ccc3ncsc3c2)n1` [Compound 185] belongs 205.5 to 206 °C; to `CCOC(=O)NCc1nc(-c2nc(C)cs2)c(-c2ccc3ncsc3c2)[nH]1` [Compound 187], 183 to 184 °C. For `Cc1csc(-c2nc(CNC(=O)OCCCl)[nH]c2-c2ccc3ncsc3c2)n1` [Compound 188], the melting point was 202 to 204 °C (dec.). Same read-out and setting: under `CCCCOC(=O)NCc1nc(-c2nc(C)cs2)c(-c2ccc3ncsc3c2)[nH]1` [Compound 193] stands 161 to 162 °C; under `Cc1csc(-c2nc(CNC(=O)OCC(C)C)[nH]c2-c2ccc3ncsc3c2)n1` [Compound 194], 142.5 to 144 °C. Still for that read-out and setting: to `CCCCCOC(=O)NCc1nc(-c2nc(C)cs2)c(-c2ccc3ncsc3c2)[nH]1` [Compound 195] belongs 177.5 to 178.5 °C; to `Cc1csc(-c2nc(CNC(=O)OCC(C)(C)C)[nH]c2-c2ccc3ncsc3c2)n1` [Compound 196], 170.5 to 171.5 °C; to `Cc1csc(-c2nc(COC(=O)N(C)C)[nH]c2-c2ccc3ncsc3c2)n1` [Compound 199], 181.5 to 182 °C.

Turning to `N#Cc1ccc(-c2nc(-c3nccs3)c(-c3ccccn3)n2O)cc1` [Compound 202], the melting point was 248 to 251 °C (dec.). Compound `Cc1csc(C(=O)C(=O)c2ccc3c(c2)OCO3)n1` [Compound 203] returned a melting point of 131.5 to 132.5 °C. On the same count and under the same terms, to `Cc1csc(C(=O)C(=O)c2ccc(F)cc2)n1` [Compound 206] belongs 75 to 77 °C; to `Cc1csc(C#Cc2ccc3c(c2)OCO3)n1` [Compound 217], 111.5 to 112 °C. As for `Cc1csc(C#Cc2ccc(F)cc2)n1` [Compound 219], the melting point was 82 to 83 °C.

Take `Cc1csc(-c2nc(C3CCC(=O)N3)[nH]c2-c2ccc3ncsc3c2)n1` (stereo not shown) [Compound 229]: the melting point was 273 to 275 °C (dec.).

In the case of `Cc1csc(-c2nc(C3CCC(=O)N3)[nH]c2-c2ccc3ncsc3c2)n1` (stereo not shown) [Compound 230], the melting point is 263 to 268 °C (dec.).

`COc1ccc(Cn2c(C)nc(-c3nc(C)cs3)c2-c2ccc3ncsc3c2)cc1` [Compound 231]: the melting point is 144 to 145 °C. The same measure, in the same setting: under `Cc1csc(-c2nc(C)n(Cc3ccc(O)cc3)c2-c2ccc3ncsc3c2)n1` [Compound 232] stands 215.5 to 218.5 °C. The same measure, in the same setting: under `Cc1csc(-c2nc(C)n(Cc3ccc(OCCN(C)C)cc3)c2-c2ccc3ncsc3c2)n1` [Compound 233] stands 146.5 to 148 °C; under `COCCOc1ccc(Cn2c(C)nc(-c3nc(C)cs3)c2-c2ccc3ncsc3c2)cc1` [Compound 234], 129.5 to 131 °C; under `CNC(=O)OCc1nc(-c2nc(C)cs2)c(-c2ccc3ncsc3c2)[nH]1` [Compound 235], 158 to 159.5 °C. The same measure, in the same setting: to `CNC(=O)NCc1nc(-c2nc(C)cs2)c(-c2ccc3ncsc3c2)[nH]1` [Compound 238] belongs 239 to 239.5 °C; to `Cc1csc(-c2nc(CNC(=O)C3CCCCO3)[nH]c2-c2ccc3ncsc3c2)n1` (stereo not shown) [Compound 241], 220.5 to 222 °C; to `Cc1nc(-c2nc(C(F)(F)F)cs2)c(-c2ccc3ncsc3c2)[nH]1` [Compound 244], 190.5 to 192 °C. `O=C(C(=O)c1nc(C(F)(F)F)cs1)c1ccc2ncsc2c1` [Compound 251] yielded a melting point of 163.5 to 164.5 °C.

Another series relates to Smad2/3 phosphorylation caused by TGF-β1 stimulation. As to the kind of experiment: Smad2/3 phosphorylation inhibitory activity test. It is filed as cell-based. The following applies: Homo sapiens; A549 cells; compound 2 hours before TGF-β1 1 ng/ml, 1 hour; anti-Smad2/3 immunoprecipitation, Western blotting. The protocol: A549 cells were seeded to a plate, and cultured overnight in a Ham's F-12 medium supplemented with 10% FBS. This medium was replaced with the same medium containing the compounds or not containing the compounds, and after incubated another 2 hours, TGF-01 was added thereto so as to make its final concentration 1 ng/ml, and further incubated another 1 hour. After completion of incubation, the medium was removed, and the cells were washed with PBS and then lysed by a RIPA solution. The cell lysate solution was subjected to immunoprecipitation using anti-Smad2/3 antibody, and then Western blotting was performed. Using a rabbit anti-phosphorylated serine antibody as a primary antibody, a HRP-labeled anti-rabbit IgG antibody as a secondary antibody, and ECL Western blotting detection reagents as detection reagents, light emitting amounts were measured using Limi-Imager F1 (Roche Diagnostics) etc.
Following the above described methods, the inhibitory activities of the respective compounds against Smad2/3 phosphorylation caused by TGF-β1 stimulation were measured, and IC50 values were calculated.
As to `Cc1csc(-c2nc(-c3ccc(C(N)=O)cc3)[nH]c2-c2ccc3ncsc3c2)n1` [Compound 50], the pIC50 was 7.10. Still for that read-out and setting: to `Cc1csc(-c2nc(C)[nH]c2-c2ccc3ncsc3c2)n1` [Compound 52] belongs 7.62; to `CCCCc1nc(-c2nc(C)cs2)c(-c2ccc3ncsc3c2)[nH]1` [Compound 57], 7.35; to `Cc1csc(-c2nc(N)[nH]c2-c2ccc3ncsc3c2)n1` [Compound 68], 7.51. Compound `Cc1csc(-c2nc(C3CCC(=O)CC3)[nH]c2-c2ccc3ncsc3c2)n1` [Compound 80] showed a pIC50 of 7.05. The same measure, in the same setting: to `CCCC(O)CCc1nc(-c2nc(C)cs2)c(-c2ccc3ncsc3c2)[nH]1` (stereo not shown) [Compound 81] belongs 7.28; to `Cc1csc(-c2nc(C3CCOCC3)[nH]c2-c2ccc3ncsc3c2)n1` [Compound 83], 7.00; to `COCCCCc1nc(-c2nc(C)cs2)c(-c2ccc3ncsc3c2)[nH]1` [Compound 87], 7.42. Still for that read-out and setting: to `CCCC(=O)NCc1nc(-c2nc(C)cs2)c(-c2ccc3ncsc3c2)[nH]1` [Compound 105] belongs 7.49; to `COCC(=O)NCc1nc(-c2nc(C)cs2)c(-c2ccc3ncsc3c2)[nH]1` [Compound 124], 7.17.

Compound `Cc1csc(-c2nc(CNC(=O)C3CCOCC3)[nH]c2-c2ccc3ncsc3c2)n1` [Compound 129] had a pIC50 of 6.97. The compound `CCCNC(=O)CCCCc1nc(-c2nc(C)cs2)c(-c2ccc3ncsc3c2)[nH]1` [Compound 171] showed a negative logarithm of the IC50 (pIC50) of 7.05. On the same count and under the same terms, under `CCNC(=O)NCc1nc(-c2nc(C)cs2)c(-c2ccc3ncsc3c2)[nH]1` [Compound 175] stands 6.90. The same measure, in the same setting: to `Cc1csc(-c2nc(CNC(=O)N(C)C)[nH]c2-c2ccc3ncsc3c2)n1` [Compound 176] belongs 7.11. Same read-out and setting: under `COC(=O)NCc1nc(-c2nc(C)cs2)c(-c2ccc3ncsc3c2)[nH]1` [Compound 186] stands 7.42; under `C#CCOC(=O)NCc1nc(-c2nc(C)cs2)c(-c2ccc3ncsc3c2)[nH]1` [Compound 191], 7.51.

`Cc1csc(-c2nc(CN3CCOC3=O)[nH]c2-c2ccc3ncsc3c2)n1` [Compound 197]: the pIC50 is 7.04. Compound `CCNC(=O)OCc1nc(-c2nc(C)cs2)c(-c2ccc3ncsc3c2)[nH]1` [Compound 198] showed a pIC50 of 7.03. In the case of `Cc1csc(-c2nc(COC(=O)N(C)C)[nH]c2-c2ccc3ncsc3c2)n1` [Compound 199], the pIC50 is 7.15. As to `CCCC(=O)CCc1nc(-c2nc(C)cs2)c(-c2ccc3ncsc3c2)[nH]1` [Compound 201], the pIC50 is 7.38.
